Read-outs that look alike come from different tables or passages of the source.
Key:
[1] = Cell proliferation assay (WST-1); format: cell-based; conditions: human
Procedure: (§1) Huh7.5.1 cells were seeded in 96-well plates at a density of 2 × 10^4 cells per well overnight. Cells were incubated with serial diluted compounds for 48 h. The viability of Huh7.5.1 cells was determined in 96-well tissue culture plates using the cell proliferation reagent WST-1 (Roche), and absorbance (OD450 / reference OD630) was measured to detect the cytotoxicity of compounds according to the manufacturer’s protocol for the Cell Proliferation Reagent WST-1. CC50 is the concentration of the compound at which the cell growth was inhibited by 50%. The values of CC50 were plotted by the GraphPad Prism 5 software.

HCV (JFH-1, genotype 2a) [2] = experiment: microbe, parasite or virus in culture; format: cell-based, Hepatitis C virus; conditions: for EC50: luminescence reduced by 50% in Huh7.5.1 cells, mean of three experiments, read-out: Anti-HCV activity virus assay JFH1 EC50; for SI (selective index): ratio of CC50 to EC50
Description: The HCV virus assay was constructed by using the method developed as previously described, albeit with a slight modification. Briefly, the plasmid of pRluc-JFH-1 was constructed as following. Based on the plasmid of pJFH-1, as a gift from Apath,L.L.C., a humanized Renilla luciferase reporter gene was introduced into the C-terminus of NS5A in the JFH-1 genome. The plasmid phRluc-JFH-1 was made via digestion with the XbaI restriction enzyme and used as a template for RNA transcription. The virus transcripts were prepared in vitro by using the Ambion MEGAscript Kits, and then 10 μg of RNA was mixed with […] of Huh7.5.1, which was gifted by Jin Zhong (Institute Pasteur of Shanghai, Chinese Academy of Science), at a concentration of 1×10^7 cells/ml. After electroporation, the Huh7.5.1 cells containing virus transcripts were seeded in a 10-cm dish. After the cells were cultured for 4 days, the supernatant was collected and filtered to obtain the stock solution of the hRluc-JFH-1 virus. To obtain the virus titer, the virus stocks were diluted at a gradient of 1:10, and the Huh7.5.1 cells were incubated for 48h at 37°C. Then, the cells were harvested, and the luminescence was detected via the manufacturer’s protocol of the Renilla-Glo™ Luciferase Assay System (Promega).
Huh7.5.1 cells were seeded in 96-well plates at a density of 2 ×10^4 cells per well at 37°C overnight. All of the synthetic compounds were diluted with DMSO to 10 mM of stock solution. The initial concentration of compounds was 20 μM and then diluted at a gradient of 1:4 to concentrations ranging from 20 μM to 0.02 μM, containing 0.5% DMSO. For the HCVcc system, serial diluted compounds were mixed with a certain titer of HCVcc-hRluc-JFH1 virus, and the final concentration of HCVcc-hRluc-JFH1 virus titer was diluted to the numbers of relative luminescence units (RLU) ranging from 20,000 to 50,000 RLU and then added to the Huh7.5.1 cells. Then, the cells were cultured for 2 days at 37°Cand harvested. The luminescence was detected via the manufacturer’s protocol of the Renilla-Glo™ Luciferase Assay System. EC50 is the concentration of the compound at which the HCV luminescence level in the Huh7.5.1 cells is reduced by 50%. The values of EC50 were plotted by the GraphPad Prism 5 software.

HCV NS5B protein = biological target: T1, HCV NS5B protein (Hepatitis C virus genotype 1b, UniProt P26663); experiment: biochemical; conditions: for IC50: in vitro enzyme activity, 2'-O-Me-CTP positive control, read-out: NS5B inhibition assay IC50
T1 construct: Purified HCV NS5B protein and HCV (-) 3’ T RNA template were obtained as described previously
T1 sequence (P26663 2420-3010): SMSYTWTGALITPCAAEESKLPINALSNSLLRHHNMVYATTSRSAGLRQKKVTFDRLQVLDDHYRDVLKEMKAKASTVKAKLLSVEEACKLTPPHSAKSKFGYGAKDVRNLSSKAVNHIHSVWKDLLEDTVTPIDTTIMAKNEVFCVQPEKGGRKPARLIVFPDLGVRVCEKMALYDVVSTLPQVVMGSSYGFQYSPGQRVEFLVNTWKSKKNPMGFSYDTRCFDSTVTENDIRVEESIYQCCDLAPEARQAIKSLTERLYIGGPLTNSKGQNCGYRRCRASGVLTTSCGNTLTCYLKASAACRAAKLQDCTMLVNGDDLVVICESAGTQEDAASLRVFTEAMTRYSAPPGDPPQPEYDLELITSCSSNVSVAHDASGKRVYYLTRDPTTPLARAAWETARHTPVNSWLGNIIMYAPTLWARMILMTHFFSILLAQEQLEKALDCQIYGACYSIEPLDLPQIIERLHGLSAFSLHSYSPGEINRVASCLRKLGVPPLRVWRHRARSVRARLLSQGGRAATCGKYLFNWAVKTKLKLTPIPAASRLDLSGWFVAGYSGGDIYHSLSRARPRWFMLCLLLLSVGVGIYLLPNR
Procedure: The inhibitory effects of the tested reagents on in vitro NS5B activity were determined by NS5B-catalyzed RNA synthesis assay as described previously. Purified HCV NS5B protein and HCV (-) 3’ T RNA template were obtained as described previously. The tested reagents were added at a variety of concentrations in 50 μl reaction mixture consisting of 20 mM HEPES (pH 8.0), 1.5 mM MnCl2, 100 mM ammonium acetate, 1 mM DTT, 500 μM GTP, 250 μM each of CTP, ATP and UTP, 40U of RNasin (Biostar, Canada), 2 μg/ml HCV (-) 3’ TRNA template and 300 ng purified NS5B protein. After 2 h at 30°C, the reaction was stopped by 100 mM EDTA and RNA was purified using the RNaid Kit (Qbiogene). To determine NS5B-catalyzed RNA synthesis, real-time RT-PCR was performed. cDNA was synthesized using AMV-reverse transcriptase (TAKARA, Japan) and the primer targeted to NS5B-catalyzed RNA product (5’-[…]-3’) and then digested with RNAase. PCR was carried out using RNA product–specific primers (forward, […], reverse 5’-[…]-3’, probe, 5’-[…]-3’) and TaqMan RT-PCR Kit according to the instruction. 50% inhibitory concentrations (IC50) were calculated using Statistical SPSS program version 11.5 by probit analysis of regression.

NS5B protein = NS5B protein (Hepatitis C virus genotype 1b, UniProt P26663); experiment: biochemical; format: binding; conditions: for Kd: dissociation equilibrium constant, NS5B immobilized on CM5 chip, read-out: SPR on NS5B KD
Sequence of NS5B protein (P26663 2420-3010): as above
Procedure: The SPR experiments were performed using a Biacore T200 optical biosensor (Biacore Life Sciences, GE Healthcare). The NS5B protein at 50 μg/ml prepared in buffer of 10 mM sodium acetate (pH 5.5) was immobilized by standard amine coupling to a CM5 biosensor chip. The compounds were injected for 60 s at a flow rate of 30 μL/min using in concentration series between 1 and 250 μM in running buffer (1 × PBS with 5% DMSO). The dissociation was monitored for 300 s. Raw data collected on an SPR biosensor were further processed to eliminate any artifacts such as nonspecific binding and discrepancies in buffer composition. All data processing and analysis was performed using the Biacore T200 Evaluation Software.

NS5B polymerase = conditions: S2 Table, validation set of the RF model; ref DOI in column Reference (DOI); cited from earlier work
Huh7.5.1 cells = experiment: Cell proliferation assay (WST-1); format: cell-based
Procedure: as §1

HCV (JFH-1, genotype 2a) [3] = format: cell-based, Hepatitis C virus; conditions: at a concentration of 12.5 μM
[4] = Huh7.5.1 cells, 48 h, WST-1, mean of three experiments, read-out: CC50

Compound | CC50 at 48 h [1, 4] [µM] | EC50 (HCV (JFH-1, genotype 2a) [2]; Hepatitis C virus, Huh-7.5.1) [µM] | SI (selective index) (HCV (JFH-1, genotype 2a) [2]) | IC50 (HCV NS5B protein) [µM] | Kd (NS5B protein) [µM] | other results
CC(C)OC(=O)[C@H](C)N[P@](=O)(OC[C@H]1O[C@@H](n2ccc(=O)[nH]c2=O)[C@](C)(F)[C@@H]1O)Oc1ccccc1 [PSI-7977, sofosbuvir, reference compound] | > 20 | 0.49 | >40.82 |  |  | 
COc1cc(C(=O)NNS(=O)(=O)c2ccccc2)cc(OCc2ccccc2)c1OC [N1] | > 100 | > 12.5 |  | 3.63 | 62.9 | 
Nc1cc(Cn2c(C(=O)NS(=O)(=O)c3ccc(O)cc3)c(-c3ccc[nH]c3=O)c3cc(Cl)ccc32)ccn1 [compound 137] |  |  |  |  |  | IC50 (NS5B polymerase): > 50 µM
CCC[C@H](NC(=O)[C@@H]1[C@H]2CCC[C@H]2CN1C(=O)[C@@H](NC(=O)[C@@H](NC(=O)c1cnccn1)C1CCCCC1)C(C)(C)C)C(=O)C(=O)NC1CC1 [telaprevir, reference compound] |  | 0.02 | >500 |  |  | CC50 at 48 h [1]: > 10 µM
Cc1ccc(O)c(NC(=O)COc2ccc3c(=O)c(-c4ccccc4)c(C)oc3c2)c1 [N4] | > 100 | > 12.5 |  | 2.01 | 123 | 
N-(8-fluoro-4-oxo-1,4-dihydroquinoline-3-carbonyl)-1,2-dimethyl-1H-imidazole-4-sulfonohydrazide [N3] |  |  |  | 23.8 | 86.1 | pIC50 (HCV NS5B protein; from NS5B inhibition IC50): 4.62; CC50 (Huh7.5.1 cells): > 100 µM; pKD (NS5B protein; from SPR KD): 4.06; EC50 (HCV (JFH-1, genotype 2a) [2]): 21.3 µM
O=C(CSc1nc2ccccc2o1)Nc1cc(C(F)(F)F)cc(C(F)(F)F)c1 [N2] | 51.3 | 1.61 | 32.1 | 3 | 4.67 | cellular cytotoxicity (Huh7.5.1 cells; at a concentration of 12.5 μM): no cellular cytotoxicity; HCV virus titers suppressed (HCV (JFH-1, genotype 2a) [3]): ~99%
Cc1ccc(N(Cc2cc3cccc(C)c3nc2O)S(=O)(=O)c2ccccc2)c(C)c1 [N5, N-(2,4-dimethylphenyl)-N-((8-methyl-2-oxo-1,2-dihydroquinolin-3-yl)methyl)benzenesulfonamide] | > 100 | 10.9 |  | 2.2 |  | 
